According to patent US10221144B2, “Antibacterial compounds having broad spectrum of activity” (priority 2014, dated 2019):
Counter-ions that a name gives are not always drawn. Like-named read-outs stand apart in the source and are kept apart here.

What was measured:
Format in all cases: biochemical
E. coli Topoisomerase IV = target: T1, E. coli Topoisomerase IV (Escherichia coli, UniProt P0AFI2+P20083); assay: Topoisomerase IV decatenation assay (E. coli); details: for inhibition at 100 µM: conc. 100 μM; for inhibition at 50 µM: conc. 50 μM
T1 construct: purchased Inspiralis, UK
T1 sequence (P20083 whole entry): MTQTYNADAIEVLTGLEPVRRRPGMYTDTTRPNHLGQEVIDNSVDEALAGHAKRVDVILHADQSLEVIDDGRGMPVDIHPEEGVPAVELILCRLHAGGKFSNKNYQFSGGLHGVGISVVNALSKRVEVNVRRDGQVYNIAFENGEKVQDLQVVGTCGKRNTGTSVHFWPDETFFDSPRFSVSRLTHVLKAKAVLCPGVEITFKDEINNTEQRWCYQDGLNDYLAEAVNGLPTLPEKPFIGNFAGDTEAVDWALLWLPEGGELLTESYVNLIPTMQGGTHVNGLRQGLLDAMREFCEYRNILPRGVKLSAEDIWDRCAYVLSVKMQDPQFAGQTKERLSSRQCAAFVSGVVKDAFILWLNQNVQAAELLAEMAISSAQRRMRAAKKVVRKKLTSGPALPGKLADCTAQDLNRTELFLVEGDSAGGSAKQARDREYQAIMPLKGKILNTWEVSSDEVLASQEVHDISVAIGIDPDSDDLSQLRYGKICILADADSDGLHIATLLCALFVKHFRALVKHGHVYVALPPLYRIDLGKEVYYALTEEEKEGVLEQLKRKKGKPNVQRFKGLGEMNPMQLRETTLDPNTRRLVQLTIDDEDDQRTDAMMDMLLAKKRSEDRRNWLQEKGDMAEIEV
T1 sequence (P0AFI2 whole entry): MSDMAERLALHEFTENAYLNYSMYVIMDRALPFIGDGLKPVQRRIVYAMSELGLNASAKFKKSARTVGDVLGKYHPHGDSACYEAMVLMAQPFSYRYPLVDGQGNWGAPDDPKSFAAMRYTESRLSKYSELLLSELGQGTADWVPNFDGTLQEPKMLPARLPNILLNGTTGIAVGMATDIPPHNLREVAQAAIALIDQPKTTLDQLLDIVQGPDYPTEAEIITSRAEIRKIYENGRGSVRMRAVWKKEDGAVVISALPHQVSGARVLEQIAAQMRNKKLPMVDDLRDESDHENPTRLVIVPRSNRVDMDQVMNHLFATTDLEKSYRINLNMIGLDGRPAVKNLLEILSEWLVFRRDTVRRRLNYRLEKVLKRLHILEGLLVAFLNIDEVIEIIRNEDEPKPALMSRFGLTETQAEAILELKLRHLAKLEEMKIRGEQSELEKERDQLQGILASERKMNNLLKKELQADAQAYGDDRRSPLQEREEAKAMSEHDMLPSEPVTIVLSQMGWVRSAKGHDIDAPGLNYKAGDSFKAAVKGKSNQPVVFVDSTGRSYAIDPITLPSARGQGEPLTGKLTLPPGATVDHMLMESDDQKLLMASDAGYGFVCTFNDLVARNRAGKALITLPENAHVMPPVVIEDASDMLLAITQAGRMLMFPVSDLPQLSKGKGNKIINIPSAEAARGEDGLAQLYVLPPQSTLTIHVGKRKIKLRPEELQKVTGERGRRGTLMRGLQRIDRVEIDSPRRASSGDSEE
Method: (§1) The above compounds were tested for the inhibition of the enzyme DNA gyrase in a gyrase supercoiling assay and for the inhibition of the enzyme topoisomerase IV in a decatenation assay, in both Gram positive and Gram negative bacteria, according to the following methods.
(§2) Both the assays were carried out according to a set-up method modified from the article to Blanche F, et al. “Differential Behaviors of Staphylococcus aureus and Escherichia coli Type II DNA Topoisomerases”, Antimicrob. Agents Chemother., 1996, Vol. 40, No. 12 p. 2714-2720.
(§3) The compounds were screened at single concentration (200, 100 or 50 μM), in duplicate.
(§4) S. aureus and E. coli Topoisomerase IV decatenation kits (Inspiralis, UK) were used. A master mix with a total volume sufficient for the number of reactions to perform was prepared with the following reagents: 5× assay buffer (50 mM HEPES-KOH (pH 7.6), 100 mM potassium glutamate, 10 mM magnesium acetate, 10 mM DTT, 1 mM ATP, 50 μg/ml albumin), kDNA substrate (200 ng/reaction), RNase-DNase free water. Aliquots of this mix were dispensed in each tube, then 10× compound stock solutions or vehicle control (DMSO), were added in each reaction tube.
(§5) Reaction was started with Topoisomerase IV enzyme (0.5 U/reaction) addition.
(§6) A sample added with an equal volume of dilution buffer was used as negative control (without enzyme).
(§7) The reaction tubes were gentle vortexed and incubated 30 minutes at 37° C. Each reaction was stopped by adding 30 μl of Stop Buffer and 30 μl of chloroform/isoamyl alcohol (24/1), briefly vortexed for 5-10 seconds and centrifuged at 20000×g for 2 minutes. Samples taken from the upper phase were loaded into 1% agarose gel and subjected to electrophoresis for 1 hour at 80V constant voltage in TAE (40 mM Tris-acetate, 2 mM EDTA).
(§8) Data acquisition and analysis. Due to the high molecular mass, kDNA could not enter an agarose gel under normal electrophoresis conditions, but remained in the wells. In the presence of Topo IV topoisomerase mini-circles (2.5 Kb) were released from kDNA by decatenation and were quickly and easily resolved in the gel at relatively high voltages.
(§9) Bands were visualized by ethidium bromide staining (dil 1:20000) for 30 minutes followed by destaining in distilled water for 10 minutes.
(§10) For single concentration screening assay, in order to evaluate the compounds activity on the enzymes, the bands of decatenated DNAs in the gel were photographed by a digital imaging system ImageQuant LAS 4000 (GE Healthcare) according to manufacturer's instructions.
(§11) The fluorescent intensity of each band was analyzed by ImageQuant TL software and it was expressed as volume (volume of the uncalibrated quantity of material in the image feature after subtraction of the background intensity by using rolling ball method).
(§12) Each band intensity was compared, as percentage, to vehicle sample band intensity, which served as positive control, on the same gel.
(§13) Inhibitory activity was expressed as percent of inhibition versus the positive control.
(§14) The supercoiled or decatenated DNA bands obtained as described in Example 1 were analysed as follows.
(§15) Bands were analyzed by gel documentation equipment (Syngene, Cambridge, UK) and quantitated using Syngene Gene Tools software. Raw gel data (fluorescent band volumes) collected from Syngene, GeneTools gel analysis software were converted to a percentage of the 100% control (the fully supercoiled or decatenated DNA band). […] The IC50 data were calculated by using the global curve fit non-linear regression tool by selecting the Single, 2 Parameter fit function from the Exponential Decay equation category.

[1] = target: T2, S. aureus Topoisomerase IV (Staphylococcus aureus, UniProt P0C1S7+P0C1U9); assay: Topoisomerase IV decatenation assay (S. aureus); details: for inhibition at 100 µM: conc. 100 μM
T2 construct: purchased Inspiralis, UK
T2 sequence (P0C1S7 whole entry): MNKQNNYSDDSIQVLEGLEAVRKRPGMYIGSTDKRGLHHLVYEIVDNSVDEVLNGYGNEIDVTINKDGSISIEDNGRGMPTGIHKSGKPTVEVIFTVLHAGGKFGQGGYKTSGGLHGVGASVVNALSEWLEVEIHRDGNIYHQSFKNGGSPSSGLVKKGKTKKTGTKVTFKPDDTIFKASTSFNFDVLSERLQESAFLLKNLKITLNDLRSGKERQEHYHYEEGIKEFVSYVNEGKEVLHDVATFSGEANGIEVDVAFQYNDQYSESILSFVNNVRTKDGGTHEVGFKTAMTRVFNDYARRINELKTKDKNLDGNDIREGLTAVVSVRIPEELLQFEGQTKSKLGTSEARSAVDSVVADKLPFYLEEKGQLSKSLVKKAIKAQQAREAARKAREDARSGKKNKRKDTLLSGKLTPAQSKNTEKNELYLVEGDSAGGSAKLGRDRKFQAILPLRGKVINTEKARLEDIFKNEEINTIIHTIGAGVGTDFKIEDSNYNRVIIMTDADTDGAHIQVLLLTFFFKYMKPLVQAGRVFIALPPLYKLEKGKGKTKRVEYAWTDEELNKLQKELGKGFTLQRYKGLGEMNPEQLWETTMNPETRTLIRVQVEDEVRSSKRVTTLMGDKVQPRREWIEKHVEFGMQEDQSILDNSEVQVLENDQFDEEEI
T2 sequence (P0C1U9 whole entry): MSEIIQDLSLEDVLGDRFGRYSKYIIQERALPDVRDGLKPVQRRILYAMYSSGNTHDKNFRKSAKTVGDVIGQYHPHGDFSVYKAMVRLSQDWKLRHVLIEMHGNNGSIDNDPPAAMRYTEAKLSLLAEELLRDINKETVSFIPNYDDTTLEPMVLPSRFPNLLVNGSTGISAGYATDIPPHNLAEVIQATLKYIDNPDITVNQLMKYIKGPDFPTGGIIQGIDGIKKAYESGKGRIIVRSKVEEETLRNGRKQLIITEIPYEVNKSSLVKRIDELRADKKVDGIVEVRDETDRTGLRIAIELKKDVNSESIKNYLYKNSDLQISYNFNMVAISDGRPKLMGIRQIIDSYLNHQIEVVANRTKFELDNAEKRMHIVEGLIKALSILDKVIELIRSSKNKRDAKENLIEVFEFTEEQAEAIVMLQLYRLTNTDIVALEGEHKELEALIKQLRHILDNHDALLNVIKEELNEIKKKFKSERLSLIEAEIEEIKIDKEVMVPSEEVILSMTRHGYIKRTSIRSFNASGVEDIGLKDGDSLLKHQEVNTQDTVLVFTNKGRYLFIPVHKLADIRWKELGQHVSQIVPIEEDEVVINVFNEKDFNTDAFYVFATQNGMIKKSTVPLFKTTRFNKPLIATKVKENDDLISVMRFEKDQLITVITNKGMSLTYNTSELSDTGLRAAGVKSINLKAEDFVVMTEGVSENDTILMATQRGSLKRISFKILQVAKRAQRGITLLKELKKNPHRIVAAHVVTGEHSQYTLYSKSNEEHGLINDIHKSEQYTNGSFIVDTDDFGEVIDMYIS
Method: as §1, §2, §3, §4, §5, §6, §7, §8, §9, §10, §11, §12, §13, §14, §15

S. aureus DNA gyrase = target: T3, S. aureus DNA gyrase (Staphylococcus aureus, UniProt P0A0K8+P20831); assay: DNA gyrase supercoiling assay (S. aureus); details: for inhibition at 100 µM: conc. 100 μM; for inhibition at 50 µM: conc. 50 μM
T3 construct: purchased Inspiralis, UK
Method: as §1, §2, §3
(§16) Reagents from S. aureus and E. coli Gyrase Supercoiling Assay kits (Inspiralis, UK) were used. A master mix with a total volume sufficient for the number of reactions to perform was prepared with the following reagents: 5× assay buffer, relaxed pBR322 substrate (0.5 μg/reaction), RNase-DNase free water. Aliquotes of this mix were dispensed in each tube, then 10× compound stock solutions or vehicle control (DMSO), were added to each reaction tube.
(§17) Reaction was started with E. Coli (2 U/reaction) or S. aureus (1 U/reaction) gyrase enzyme addition.
as §6
(§18) The reaction tubes were gentle vortexed and incubated 30 minutes at 37° C. Each reaction was stopped by adding 30 μl of Stop Buffer and 30 μl chloroform/isoamyl alcohol (24/1), briefly vortexed for 5-10 seconds and centrifuged at 20000×g for 2 minutes. Samples were loaded onto 1% agarose gel and subjected to electrophoresis for 1 hour at 80V constant voltage in TAE (40 mM Tris-acetate, 2 mM EDTA).
(§19) Data acquisition and analysis. Treatment of relaxed pBR322 with DNA gyrase converted the relaxed topoisomers (DNAs of different linking number) to the supercoiled form of the plasmid, which migrates faster on an agarose gel. An upper band might also be visible, which consists of open-circular (nicked) DNA which is present in the relaxed substrate but co-migrates with some of the relaxed topoisomers.
(§20) Bands were visualized by ethidium bromide staining (dilution 1:20000) for 30 minutes followed by destaining in distilled water for 10 minutes.
(§21) In order to evaluate the compounds activity on the enzyme, the bands of supercoiled DNAs in the gel were photographed by a digital imaging system ImageQuant LAS 4000 (GE Healthcare) according to manufacturer's instructions.
as §11, §12, §13, §14, §15

E. coli DNA gyrase = target: T4, E. coli DNA gyrase (Escherichia coli, UniProt P0AES4+P0AES6); assay: DNA gyrase supercoiling assay (E. coli); details: for inhibition at 100 µM: conc. 100 μM; for inhibition at 50 µM: conc. 50 μM
T4 construct: purchased Inspiralis, UK
T4 sequence (P0AES4 whole entry, one chain of several): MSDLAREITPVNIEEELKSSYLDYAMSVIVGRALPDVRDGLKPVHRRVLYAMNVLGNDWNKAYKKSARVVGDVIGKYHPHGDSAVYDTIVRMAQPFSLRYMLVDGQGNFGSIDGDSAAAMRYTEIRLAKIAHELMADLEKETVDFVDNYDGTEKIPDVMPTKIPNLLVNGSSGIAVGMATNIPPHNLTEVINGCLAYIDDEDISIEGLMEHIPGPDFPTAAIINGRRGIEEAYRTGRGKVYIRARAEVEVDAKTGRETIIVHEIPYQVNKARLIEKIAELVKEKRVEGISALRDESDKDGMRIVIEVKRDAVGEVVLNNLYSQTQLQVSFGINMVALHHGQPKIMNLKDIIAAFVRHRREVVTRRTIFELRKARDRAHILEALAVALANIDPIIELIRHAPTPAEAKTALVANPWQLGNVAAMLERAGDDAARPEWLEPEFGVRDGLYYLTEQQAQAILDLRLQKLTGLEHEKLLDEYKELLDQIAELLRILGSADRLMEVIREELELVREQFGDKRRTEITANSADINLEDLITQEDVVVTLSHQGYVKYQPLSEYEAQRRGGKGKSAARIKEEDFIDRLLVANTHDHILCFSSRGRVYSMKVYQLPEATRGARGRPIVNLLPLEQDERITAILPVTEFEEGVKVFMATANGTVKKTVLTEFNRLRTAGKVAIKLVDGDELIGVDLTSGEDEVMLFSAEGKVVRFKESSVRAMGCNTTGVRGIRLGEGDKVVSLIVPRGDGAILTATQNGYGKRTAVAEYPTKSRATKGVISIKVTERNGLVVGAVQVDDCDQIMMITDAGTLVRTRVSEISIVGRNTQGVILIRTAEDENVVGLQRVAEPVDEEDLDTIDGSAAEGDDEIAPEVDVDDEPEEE
Method: as §1, §2, §3, §16, §17, §6, §18, §19, §20, §21, §11, §12, §13, §14, §15

[2] = E. coli, n/a = not active, read-out: % inhibition Topo IV
[3] = S. aureus, n/a = not active, read-out: % inhibition Topo IV
[4] = S. aureus, conc. 50 μM, n/a = not active, read-out: % inhibition Topo IV
[5] = S. aureus, concentration-response curve, eight half-log concentrations 0.1 to 300 μM, read-out: IC50 Topo IV

Row | Compound | IC50 (E. coli Topoisomerase IV) [nM] | inhibition at 100 µM (E. coli Topoisomerase IV; [2]) [%] | IC50 [1] [µM] | inhibition at 100 µM [1, 3] [%] | IC50 (S. aureus DNA gyrase) [nM] | inhibition at 100 µM (S. aureus DNA gyrase; S. aureus, n/a = not active) [%] | IC50 (E. coli DNA gyrase) [nM] | inhibition at 100 µM (E. coli DNA gyrase; E. coli, n/a = not active) [%] | inhibition at 50 µM (E. coli Topoisomerase IV; [2]) [%] | inhibition at 50 µM ([1]; read-out: % inhibition Topo IV) [%] | inhibition at 50 µM (S. aureus DNA gyrase; S. aureus, n/a = not active) [%] | inhibition at 50 µM (E. coli DNA gyrase; E. coli, n/a = not active) [%] | inhibition at 200 µM (E. coli Topoisomerase IV; E. coli, conc. 200 μM, n/a = not active, read-out: % inhibition Topo IV) [%] | inhibition at 200 µM ([1]; S. aureus, conc. 200 μM, n/a = not active, read-out: % inhibition Topo IV) [%] | inhibition at 200 µM (S. aureus DNA gyrase; S. aureus, conc. 200 μM, n/a = not active) [%] | inhibition at 200 µM (E. coli DNA gyrase; E. coli, conc. 200 μM, n/a = not active) [%] | inhibition at 50 µM [1, 4] [%] | IC50 [1, 5] [µM]
1 | O=c1cc(NCC(O)CN2CCN(c3nccc4ccccc34)CC2)c2ccccc2o1 (racemic) [Compound 59, 4-({2-hydroxy-3-[4-(isoquinolin-1-yl)piperazin-1-yl]propyl}amino)-2H-chromen-2-one] | 16100 | 100 | 18.5 | 77 | 4400 | 90 | 1200 | 81 | – | – | – | – | – | – | – | – | – | –
2 | CCOC(=O)C1CN(c2nccc3ccc(F)cc23)CCC1NCc1cc2c(=O)oc3ccccc3c2[nH]1 (racemic) [Compound 184, ethyl 1-(7-fluoroisoquinolin-1-yl)-4-{[(4-oxo-1,4-dihydro[1]benzopyrano[4,3-b]pyrrol-2-yl)methyl]amino}piperidine-3-carboxylate] | – | – | – | – | – | – | – | – | 58 | 69 | 83 | 68 | – | – | – | – | – | –
3 | O=c1cc(NCCCN2CCN(c3nccc4ccccc34)CC2)c2ccccc2o1 [Compound 44, 4-({3-[4-(isoquinolin-1-yl)piperazin-1-yl]propyl}amino)-2H-chromen-2-one] | 10000 | – | 90 | – | 14000 | – | 500 | – | – | – | – | – | 100 | 65 | 100 | 100 | – | –
4 | O=c1cc(NCCCN2CCN(c3nccc4ccc(F)cc34)CC2)c2ccccc2o1 [Compound 67, 4-({3-[4-(7-fluoroisoquinolin-1-yl)piperazin-1-yl]propyl}amino)chromen-2-one] | 1700 | 100 | 11.8 | 100 | 2800 | 97 | 800 | 89 | – | – | – | – | – | – | – | – | – | –
5 | O=c1cc(NCCNC2CCN(c3nccc4ccc(F)cc34)CC2)c2cc(F)ccc2o1 [Compound 131, 6-fluoro-4-[(2-{[1-(7-fluoroisoquinolin-1-yl)piperidin-4-yl]amino}ethyl)amino]-2H-chromen-2-one] | – | – | – | – | – | – | – | – | 100 | – | 81 | 100 | – | – | – | – | 78 | –
6 | O=c1nc(NCC(O)CN2CCN(c3nccc4ccc(F)cc34)CC2)c2cc(F)ccc2o1 (stereo not drawn) [Compound 148, 6-fluoro-4-({3-[4-(7-fluoroisoquinolin-1-yl)piperazin-1-yl]-2-hydroxypropyl}amino)-2H-1,3-benzoxazin-2-one] | 120 | – | – | – | 24 | – | 420 | – | 100 | – | 100 | 96 | – | – | – | – | 100 | 0.05
7 | O=c1nc(NCC(O)CN2CCN(c3nc(F)cc4ccc(F)cc34)CC2)c2cc(F)ccc2o1 (stereo not drawn) [Compound 149, 4-({3-[4-(3,7-difluoroisoquinolin-1-yl)piperazin-1-yl]-2-hydroxypropyl}amino)-6-fluoro-2H-1,3-benzoxazin-2-one] | 140 | – | – | – | 18 | – | 100 | – | 90 | – | 100 | 90 | – | – | – | – | 100 | 0.04
8 | Fc1ccc2ccnc(N3CCN(CCNCc4cc5c(cn4)OCCC5)CC3)c2c1 [Compound 150, N-[(3,4-dihydro-2H-pyrano[2,3-c]pyridin-6-yl)methyl]-2-[4-(7-fluoroisoquinolin-1-yl)piperazin-1-yl]ethan-1-amine] | 4240 | – | 5.89 | – | 1020 | – | 17100 | – | 50 | – | 100 | 50 | – | – | – | – | 50 | –
9 | O=c1oc2ccccc2c2[nH]c(C(O)CN3CCN(c4nccc5ccc(F)cc45)CC3)nc12 (stereo not drawn) [Compound 152, 2-{2-[4-(7-fluoroisoquinolin-1-yl)piperazin-1-yl]-1-hydroxyethyl}[1]benzopyrano[3,4-d]imidazol-4(1H)-one hydrochloride] | 850 | – | – | – | 310 | – | 660 | – | 100 | 88 | 100 | 88 | – | – | – | – | – | 0.53
10 | O=c1oc2ccccc2c2[nH]c(CNC3CCN(c4nccc5ccc(F)cc45)CC3)c(C(F)(F)F)c12 [Compound 153, 2-({[1-(7-fluoroisoquinolin-1-yl)piperidin-4-yl]amino}methyl)-3-(trifluoromethyl)[1]benzopyrano[4,3-b]pyrrol-4(1H)-one] | 1340 | – | 2.3 | – | 490 | – | 1420 | – | 50 | – | 100 | 72 | – | – | – | – | 61 | –
11 | O=c1nc(NCC(O)CN2CCN(c3nc(F)cc4ccc(OC(F)(F)F)cc34)CC2)c2cc(F)ccc2o1 (stereo not drawn) [Compound 155, 6-fluoro-4-[(3-{4-[3-fluoro-7-(trifluoromethoxy)isoquinolin-1-yl]piperazin-1-yl}-2-hydroxypropyl)amino]-2H-1,3-benzoxazin-2-one] | – | – | – | – | 8740 | – | 6310 | – | 0 | – | 50 | 60 | – | – | – | – | 50 | 7.21
12 | O=c1nc(NCC(O)CN2CCN(c3nccc4nccnc34)CC2)c2cc(F)ccc2o1 (stereo not drawn) [Compound 156, 6-fluoro-4-((2-hydroxy-3-(4-(pyrido[3,4-b]pyrazin-5-yl)piperazin-1-yl)propyl)amino)-2H-benzo[e][1,3]oxazin-2-one] | 640 | – | – | – | 1760 | – | 2740 | – | 91 | – | 89 | 78 | – | – | – | – | 86 | 1.25
